Test results from patent US8710043B2, “TRPM8 antagonists and their use in treatments” (Amgen Inc., priority 2011, dated 2014).
Counter-ions that a name gives are not always drawn.

target: T1, human TRPM8 (Homo sapiens, UniProt Q7Z2W7); test: Luminescence readout assay for measuring intracellular calcium, icilin activation; type: cell-based; conditions: CHO cells expressing human TRPM8, aequorin luminescence, 1 μM icilin activation; read-out: hTRPM8 IC50
T1 construct: expressed in transfected cells; host or cells: Chinese hamster ovary (CHO) cells, T-REx tetracycline-inducible system, co-transfected with aequorin
In short: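 The read-out was luminescence reporting intracellular calcium, recorded by a CCD-based luminometer. Compounds were preincubated for 2.5 min before agonist challenge with 1 μM icilin. Human TRPM8 was expressed in a stable T-REx CHO line, induced with 0.5 μg/mL tetracycline the day before.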

T1 sequence (Q7Z2W7 whole entry): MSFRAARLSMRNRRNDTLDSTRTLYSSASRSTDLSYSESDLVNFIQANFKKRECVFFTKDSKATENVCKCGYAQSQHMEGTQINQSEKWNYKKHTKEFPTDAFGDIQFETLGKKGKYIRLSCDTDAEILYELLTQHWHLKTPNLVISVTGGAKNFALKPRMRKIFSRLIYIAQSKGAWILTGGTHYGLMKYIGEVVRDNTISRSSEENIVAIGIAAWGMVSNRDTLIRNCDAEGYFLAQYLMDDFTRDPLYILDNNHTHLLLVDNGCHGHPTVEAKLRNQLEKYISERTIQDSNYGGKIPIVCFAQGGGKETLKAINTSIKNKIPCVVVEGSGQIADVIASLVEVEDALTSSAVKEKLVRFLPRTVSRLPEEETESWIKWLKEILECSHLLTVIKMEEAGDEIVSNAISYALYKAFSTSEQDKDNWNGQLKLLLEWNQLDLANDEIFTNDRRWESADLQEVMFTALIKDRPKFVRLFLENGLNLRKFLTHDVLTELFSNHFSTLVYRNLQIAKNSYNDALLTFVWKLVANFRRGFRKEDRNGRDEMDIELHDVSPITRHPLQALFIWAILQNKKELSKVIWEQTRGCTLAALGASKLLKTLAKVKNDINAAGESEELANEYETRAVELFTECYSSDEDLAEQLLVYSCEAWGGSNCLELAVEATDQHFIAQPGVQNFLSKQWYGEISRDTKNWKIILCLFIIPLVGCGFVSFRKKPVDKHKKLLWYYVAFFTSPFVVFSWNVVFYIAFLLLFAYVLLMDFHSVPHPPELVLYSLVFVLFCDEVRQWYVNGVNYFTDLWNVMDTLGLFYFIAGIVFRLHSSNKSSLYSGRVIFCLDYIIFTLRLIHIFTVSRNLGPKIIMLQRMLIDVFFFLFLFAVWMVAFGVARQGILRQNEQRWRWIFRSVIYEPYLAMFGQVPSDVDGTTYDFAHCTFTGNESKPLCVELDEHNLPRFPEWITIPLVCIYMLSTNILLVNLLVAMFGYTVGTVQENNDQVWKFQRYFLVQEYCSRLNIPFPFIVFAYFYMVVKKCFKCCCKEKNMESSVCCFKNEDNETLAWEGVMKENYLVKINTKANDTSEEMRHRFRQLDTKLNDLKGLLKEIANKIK

IC50 [nM] | Structure (SMILES)
16 | O=C(N[C@@H](c1ccc(C(F)(F)F)cc1)c1ncccc1C(F)(F)F)c1ccc2ncsc2c1 [Example 239, (S)-N-((4-(trifluoromethyl)phenyl)(3-(trifluoromethyl)pyridin-2-yl)methyl)benzo[d]thiazole-6-carboxamide]
81 | COC(C)(C)C(=O)N[C@@H](c1ccc(C(F)(F)F)cc1)c1ncccc1C(F)(F)F [Example 240, (S)-2-methoxy-2-methyl-N-((4-(trifluoromethyl)phenyl)(3-(trifluoromethyl)pyridin-2-yl)methyl)propanamide]
590 | O=C(N[C@@H](c1ccc(C(F)(F)F)cc1)c1ncccc1C(F)(F)F)[C@H]1CC[C@@H](CO)CC1 [Example 241, (1s,4R)-4-(hydroxymethyl)-N-((S)-(4-(trifluoromethyl)phenyl)(3-(trifluoromethyl)pyridin-2-yl)methyl)cyclohexanecarboxamide]
1030 | O=C(N[C@@H](c1ccc(C(F)(F)F)cc1)c1ncccc1C(F)(F)F)C1CCC(O)CC1 (stereo partly drawn) [Example 242, (S)-4-hydroxy-N-((4-(trifluoromethyl)phenyl)(3-(trifluoromethyl)pyridin-2-yl)methyl)cyclohexanecarboxamide]
1440 | CC(C)(C(=O)O)C(=O)N[C@@H](c1ccc(C(F)(F)F)cc1)c1ncccc1C(F)(F)F [Example 243, (S)-2,2-dimethyl-3-oxo-3-(((4-(trifluoromethyl)phenyl)(3-(trifluoromethyl)pyridin-2-yl)methyl)amino)propanoic acid]
3380 | O=C(O)C1CCC(C(=O)N[C@@H](c2ccc(C(F)(F)F)cc2)c2ncccc2C(F)(F)F)CC1 (stereo partly drawn) [Example 244, (S)-4-(((4-(trifluoromethyl)phenyl)(3-(trifluoromethyl)pyridin-2-yl)methyl)carbamoyl)cyclohexanecarboxylic acid]
77.4 | O=C(N[C@@H](c1ccc(C(F)(F)F)cc1)c1ncccc1C(F)(F)F)c1ccc2c(c1)C(=O)CC2 [Example 245, (S)-3-oxo-N-((4-(trifluoromethyl)phenyl)(3-(trifluoromethyl)pyridin-2-yl)methyl)-2,3-dihydro-1H-indene-5-carboxamide]
210 | O=C(N[C@@H](c1ccc(C(F)(F)F)cc1)c1ncccc1C(F)(F)F)c1cccc(C(=O)c2ccccc2)c1 [Example 246, (S)-3-benzoyl-N-((4-(trifluoromethyl)phenyl)(3-(trifluoromethyl)pyridin-2-yl)methyl)benzamide 2,2,2-trifluoroacetate]
11.8 | O=C(N[C@@H](c1ccc(C(F)(F)F)cc1)c1ncccc1C(F)(F)F)c1ccc2nccn2c1 [Example 254, (S)-N-((4-(trifluoromethyl)phenyl)(3-(trifluoromethyl)pyridin-2-yl)methyl)imidazo[1,2-a]pyridine-6-carboxamide 2,2,2-trifluoroacetate]
114 | CN(C)c1ccc(C(=O)N[C@@H](c2ccc(C(F)(F)F)cc2)c2ncccc2C(F)(F)F)cn1 [Example 262, (S)-6-(Dimethylamino)-N-((4-(trifluoromethyl)phenyl)(3-(trifluoromethyl)pyridin-2-yl)methyl)nicotinamide]
133 | CCNc1ccc(C(=O)N[C@@H](c2ccc(C(F)(F)F)cc2)c2ncccc2C(F)(F)F)cn1 [Example 263, (S)-6-(Ethylamino)-N-((4-(trifluoromethyl)phenyl)(3-(trifluoromethyl)pyridin-2-yl)methyl)nicotinamide]
62.2 | O=C(N[C@@H](c1ccc(C(F)(F)F)cc1)c1ncccc1C(F)(F)F)c1ccc2c(c1)C(=O)NC2 [Example 265, (S)-3-oxo-N-((4-(trifluoromethyl)phenyl)(3-(trifluoromethyl)-pyridin-2-yl)methyl)isoindoline-5-carboxamide]
223 | O=C(N[C@@H](c1ccc(C(F)(F)F)cc1)c1ncccc1C(F)(F)F)c1cnc(O)nc1 [Example 266, (S)-2-Hydroxy-N-((4-(trifluoromethyl)phenyl)(3-(trifluoro-methyl)pyridin-2-yl)methyl)pyrimidine-5-carboxamide]
136 | CCCN1C(=O)c2ccc(C(=O)N[C@@H](c3ccc(C(F)(F)F)cc3)c3ncccc3C(F)(F)F)cc2C1=O [Example 269, (S)-1,3-Dioxo-2-propyl-N-((4-(trifluoromethyl)phenyl)(3-(trifluoromethyl)pyridin-2-yl)methyl)isoindoline-5-carboxamide]
19.1 | CN1C(=O)c2ccc(C(=O)N[C@@H](c3ccc(C(F)(F)F)cc3)c3ncccc3C(F)(F)F)cc2C1=O [Example 270, (S)-2-Methyl-1,3-dioxo-N-((4-(trifluoromethyl)phenyl)(3-(trifluoromethyl)pyridin-2-yl)methyl)isoindoline-5-carboxamide]

Second part, the compound before the results:

Structure (SMILES) | IC50 [nM]
O=C(NC(c1ccc(Cl)c(Cl)c1)c1ccccn1)c1ccc2cnccc2c1 (centres unmarked) [Example 247, N-((3,4-dichlorophenyl)(pyridin-2-yl)methyl)isoquinoline-6-carboxamide bis-hydrochloride] | 42.7
O=C(N[C@@H](c1ccc(C(F)(F)F)cc1)c1ncccc1Cl)c1ccc(=O)[nH]c1 [Example 248, (S)-N-((3-chloropyridin-2-yl)(4-(trifluoromethyl)phenyl)methyl)-6-oxo-1,6-dihydropyridine-3-carboxamide 2,2,2-trifluoroacetate] | 11.9
Cn1cc(C(=O)N[C@@H](c2ccc(C(F)(F)F)cc2)c2ncccc2Cl)ccc1=O [Example 249, (S)-N-((3-chloropyridin-2-yl)(4-(trifluoromethyl)phenyl)methyl)-1-methyl-6-oxo-1,6-dihydropyridine-3-carboxamide 2,2,2-trifluoroacetate] | 13.2
O=C(N[C@@H](c1ccc(Cl)c(Cl)c1)c1ncccc1F)c1ccc(=O)[nH]c1 [Example 250, (S)-N-((3,4-dichlorophenyl)(3-fluoropyridin-2-yl)methyl)-6-oxo-1,6-dihydropyridine-3-carboxamide 2,2,2-trifluoroacetate] | 19.2
Cn1cc(C(=O)N[C@@H](c2ccc(Cl)c(Cl)c2)c2ncccc2F)ccc1=O [Example 251, (S)-N-((3,4-dichlorophenyl)(3-fluoropyridin-2-yl)methyl)-1-methyl-6-oxo-1,6-dihydropyridine-3-carboxamide 2,2,2-trifluoroacetate] | 19.3
Cn1cc(C(=O)N[C@@H](c2ccc(OC(F)(F)F)cc2)c2ncccc2F)ccc1=O [Example 252, (S)-N-((3-fluoropyridin-2-yl)(4-(trifluoromethoxy)phenyl)methyl)-1-methyl-6-oxo-1,6-dihydropyridine-3-carboxamide 2,2,2-trifluoroacetate] | 24.7
O=C(N[C@@H](c1ccc(C(F)(F)F)cc1)c1ncccc1F)c1ccc2nccn2c1 [Example 253, (S)-N-((3-fluoropyridin-2-yl)(4-(trifluoromethyl)phenyl)methyl)imidazo[1,2-a]pyridine-6-carboxamide 2,2,2-trifluoroacetate] | 11.4
CCn1cc(C(=O)N[C@@H](c2ccc(OC(F)(F)F)cc2)c2ncccc2F)ccc1=O [Example 255, (S)-1-ethyl-N-((3-fluoropyridin-2-yl)(4-(trifluoromethoxy)phenyl)methyl)-6-oxo-1,6-dihydropyridine-3-carboxamide] | 17.6
O=C(N[C@@H](c1ccc(C(F)(F)F)cc1)c1ccccc1Br)c1ccc2ncccc2c1 [Example 256, (S)-N-((2-bromophenyl)(4-(trifluoromethyl)phenyl)methyl)quinoline-6-carboxamide 2,2,2-trifluoro acetate, 2,2,2-trifluoroacetate] | 302
O=C(N[C@@H](c1ccc(C(F)(F)F)c(F)c1)c1ccccc1C(F)(F)F)c1ccc2ncccc2c1 [Example 257, (S)-N-((3-fluoro-4-(trifluoromethyl)phenyl)(2-(trifluoromethyl)phenyl)methyl)quinoline-6-carboxamide] | 109
O=C(N[C@@H](c1ccc(C(F)(F)F)cc1)c1c(F)cccc1F)c1ccc(=O)[nH]c1 [Example 258, (S)-N-((2,6-difluorophenyl)(4-(trifluoromethyl)phenyl)methyl)-6-oxo-1,6-dihydropyridine-3-carboxamide] | 40.7
O=C(N[C@@H](c1ccc(C(F)(F)F)cc1)c1ncsc1Br)c1ccc2ncccc2c1 [Example 259, (S)-N-((5-bromothiazol-4-yl)(4-(trifluoromethyl)phenyl)methyl)quinoline-6-carboxamide 2,2,2-trifluoroacetate] | 128
O=C(N[C@@H](c1ccc(C(F)(F)F)cc1)c1cnccc1C(F)(F)F)c1ccc2ncccc2c1 [Example 260, (S)-N-((4-(trifluoromethyl)phenyl)(4-(trifluoromethyl)pyridin-3-yl)methyl)quinoline-6-carboxamide bis (2,2,2-trifluoroacetate)] | 311
O=C(N[C@@H](C#Cc1ccccc1)c1ncccc1C(F)(F)F)c1ccc2cccnc2c1 [Example 261, (S)-N-(3-phenyl-1-(3-(trifluoromethyl)pyridin-2-yl)prop-2-yn-1-yl)quinoline-7-carboxamide] | 375
COc1ncc(C(=O)N[C@@H](c2ccc(C(F)(F)F)cc2)c2ncccc2F)cn1 [Example 264, (S)—N-((3-Fluoropyridin-2-yl)(4-(trifluoromethyl)phenyl)methyl)-2-methoxypyrimidine-5-carboxamide] | 253
CCCc1cccnc1[C@@H](NC(=O)c1ccc(=O)[nH]c1)c1ccc(C(F)(F)F)cc1 [Example 267, (S)-6-Oxo-N-((3-propylpyridin-2-yl)(4-(trifluoromethyl)-phenyl)methyl)-1,6-dihydropyridine-3-carboxamide] | 9.9
C=CCN1C(=O)c2ccc(C(=O)N[C@@H](c3ccc(C(F)(F)F)cc3)c3ncccc3C(F)(F)F)cc2C1=O [Example 268, (S)-2-Allyl-1,3-dioxo-N-((4-(trifluoromethyl)phenyl)(3-(trifluoromethyl)pyridin-2-yl)methyl)isoindoline-5-carboxamide] | 156
